Columns and labels:
[1] = tested on: NCI-H460; test: Cytotoxicity against human NCI-H460 cells assessed as growth inhibition at 0.1 ug/ml after 24 hrs by MTT assay; format: functional; settings: NCI-H460, 24 h, read-out: GI
[2] = Cytotoxicity against human HO8910 cells assessed as growth inhibition at 100 ug/ml after 24 hrs by MTT assay; format: functional; settings: HO-8910, 24 h, read-out: GI
[3] = Cytotoxicity against human HO8910 cells assessed as growth inhibition at 10 ug/ml after 24 hrs by MTT assay; format: functional; settings: HO-8910, 24 h, read-out: GI
[4] = Cytotoxicity against human HO8910 cells assessed as growth inhibition at 1 ug/ml after 24 hrs by MTT assay; format: functional; settings: HO-8910, 24 h, read-out: GI
[5] = tested on: KB; test: Cytotoxicity against human KB cells assessed as growth inhibition at 100 ug/ml after 24 hrs by MTT assay; format: functional; settings: read-out: GI
[6] = tested on: KB; test: Cytotoxicity against human KB cells assessed as growth inhibition at 10 ug/ml after 24 hrs by MTT assay; format: functional; settings: read-out: GI
[7] = tested on: KB; test: Cytotoxicity against human KB cells assessed as growth inhibition at 1 ug/ml after 24 hrs by MTT assay; format: functional; settings: read-out: GI
[8] = tested on: Bel-7402; test: Cytotoxicity against human Bel7402 cells assessed as growth inhibition at 100 ug/ml after 24 hrs by MTT assay; format: functional; settings: Bel-7402, 24 h, read-out: GI
[9] = tested on: Bel-7402; test: Cytotoxicity against human Bel7402 cells assessed as growth inhibition at 10 ug/ml after 24 hrs by MTT assay; format: functional; settings: Bel-7402, 24 h, read-out: GI
[10] = tested on: Bel-7402; test: Cytotoxicity against human Bel7402 cells assessed as growth inhibition at 1 ug/ml after 24 hrs by MTT assay; format: functional; settings: Bel-7402, 24 h, read-out: GI
[11] = tested on: PC-3; test: Cytotoxicity against human PC3 cells assessed as growth inhibition at 100 ug/ml after 24 hrs by MTT assay; format: functional; settings: PC-3, 24 h, read-out: GI
[12] = tested on: PC-3; test: Cytotoxicity against human PC3 cells assessed as growth inhibition at 10 ug/ml after 24 hrs by MTT assay; format: functional; settings: PC-3, 24 h, read-out: GI
[13] = tested on: PC-3; test: Cytotoxicity against human PC3 cells assessed as growth inhibition at 1 ug/ml after 24 hrs by MTT assay; format: functional; settings: PC-3, 24 h, read-out: GI
[14] = tested on: PC-3; test: Cytotoxicity against human PC3 cells assessed as growth inhibition at 0.1 ug/ml after 24 hrs by MTT assay; format: functional; settings: PC-3, 24 h, read-out: GI
[15] = tested on: CCRF S-180; test: Antitumor activity against mouse S180 cells xenografted in ICR mouse assessed as reduction of tumor weight at 100 mg/kg, ig administered 2 days after tumor inoculation qd for 7 days; format: functional; settings: route intragastric
[16] = tested on: CCRF S-180; test: Antitumor activity against mouse S180 cells xenografted in ICR mouse assessed as reduction of tumor weight at 200 mg/kg, ig administered 2 days after tumor inoculation qd for 7 days; format: functional; settings: route intragastric
[17] = tested on: CCRF S-180; test: Antitumor activity against mouse S180 cells xenografted in ICR mouse assessed as inhibition of tumor weight at 200 mg/kg, ig administered 2 days after tumor inoculation qd for 7 days relative to control; format: functional; settings: CCRF S-180, po, route intragastric
[18] = tested on: CCRF S-180; test: Cytotoxicity against mouse S180 cells assessed as growth inhibition at 100 ug/ml after 24 hrs by MTT assay; format: functional; settings: CCRF S-180, 24 h
[19] = tested on: CCRF S-180; test: Cytotoxicity against mouse S180 cells assessed as growth inhibition at 10 ug/ml after 24 hrs by MTT assay; format: functional; settings: CCRF S-180, 24 h
[20] = tested on: CCRF S-180; test: Cytotoxicity against mouse S180 cells assessed as growth inhibition at 1 ug/ml after 24 hrs by MTT assay; format: functional; settings: CCRF S-180, 24 h
[21] = tested on: CCRF S-180; test: Cytotoxicity against mouse S180 cells assessed as growth inhibition at 0.1 ug/ml after 24 hrs by MTT assay; format: functional; settings: CCRF S-180, 24 h
[22] = tested on: Mus musculus; test: Acute toxicity in ICR mouse assessed as gross pathological changes at 1000 mg/kg, ig; format: organism-based; parameters: dose 1000 mg/kg, route intragastric; settings: in vivo, po
[23] = tested on: Mus musculus; test: Acute toxicity in ICR mouse assessed as mortality at 1000 mg/kg, ig; format: organism-based; parameters: dose 1000 mg/kg, route intragastric; settings: in vivo, po
[24] = Acute toxicity in ICR mouse; format: organism-based; settings: in vivo
[25] = tested on: Mus musculus; test: Acute toxicity in ICR mouse assessed as mortality at 100 mg/kg, ip qd for 4 days; format: organism-based; parameters: dose 100 mg/kg, route intraperitoneal; settings: in vivo, 96 h
[26] = tested on: Mus musculus; test: Acute toxicity in ICR mouse assessed as change in body weight at 100 mg/kg, ip qd for 4 days; format: organism-based; parameters: dose 100 mg/kg, route intraperitoneal; settings: in vivo, 96 h
[27] = tested on: Mus musculus; test: Acute toxicity in ICR mouse assessed as mortality at 200 mg/kg, ip qd for 9 days measured on day 11; format: organism-based; parameters: dose 200 mg/kg, route intraperitoneal; settings: in vivo, 216 h
[28] = tested on: NCI-H460; test: Cytotoxicity against human NCI-H460 cells assessed as growth inhibition at 100 ug/ml after 24 hrs by MTT assay; format: functional; settings: NCI-H460, 24 h, read-out: GI
[29] = tested on: NCI-H460; test: Cytotoxicity against human NCI-H460 cells assessed as growth inhibition at 10 ug/ml after 24 hrs by MTT assay; format: functional; settings: NCI-H460, 24 h, read-out: GI
[30] = tested on: NCI-H460; test: Cytotoxicity against human NCI-H460 cells assessed as growth inhibition at 1 ug/ml after 24 hrs by MTT assay; format: functional; settings: NCI-H460, 24 h, read-out: GI

With `O=C(CCCCC1CCSS1)Nc1ccc(Cl)cn1` (stereo not given) as the compound, how does the inhibition of growth at 0.1 µg/mL [1] read?
The inhibition of growth at 0.1 µg/mL was 3.93%.

What about the inhibition of growth at 100 µg/mL [2] of the same compound?
The inhibition of growth at 100 µg/mL was 68.5%.

And the inhibition of growth at 10 µg/mL [3]?
Its inhibition of growth at 10 µg/mL is 27.5%.

What about the inhibition of growth at 1 µg/mL [4] of the same compound?
The inhibition of growth at 1 µg/mL was 2.1%.

And the inhibition of growth at 100 µg/mL [5]?
Its inhibition of growth at 100 µg/mL is 74.5%.

What about the inhibition of growth at 10 µg/mL [6] of the same compound?
Its inhibition of growth at 10 µg/mL is 28.6%.

And the inhibition of growth at 1 µg/mL [7]?
The inhibition of growth at 1 µg/mL was 0.76%.

And the inhibition of growth at 100 µg/mL [8]?
Its inhibition of growth at 100 µg/mL is 48.5%.

What about the inhibition of growth at 10 µg/mL [9] of the same compound?
Its inhibition of growth at 10 µg/mL is 16.1%.

What about the inhibition of growth at 1 µg/mL [10] of the same compound?
The inhibition of growth at 1 µg/mL was 7.44%.

What about the inhibition of growth at 100 µg/mL [11] of the same compound?
The inhibition of growth at 100 µg/mL was 42.3%.

And the inhibition of growth at 10 µg/mL [12]?
The inhibition of growth at 10 µg/mL was 17.1%.

And the inhibition of growth at 1 µg/mL [13]?
The inhibition of growth at 1 µg/mL was 2%.

And the inhibition of growth at 0.1 µg/mL [14]?
The inhibition of growth at 0.1 µg/mL was 2.22%.

And the Activity [15]?
Its Activity is 1.53 g.

And the Activity [16]?
The Activity was 1.15 g.

And the inhibition in vivo at 200 mg/kg [17]?
Its inhibition in vivo at 200 mg/kg is 24.7%.

What about the inhibition at 100 µg/mL [18] of the same compound?
The inhibition at 100 µg/mL was 74.3%.

What about the inhibition at 10 µg/mL [19] of the same compound?
Its inhibition at 10 µg/mL is 24.5%.

And the inhibition at 1 µg/mL [20]?
The inhibition at 1 µg/mL was 13%.

And the inhibition at 0.1 µg/mL [21]?
The inhibition at 0.1 µg/mL was 5.92%.

What about the Activity [22] of the same compound?
The Activity was “Non-toxic”.

And the Activity [23]?
The Activity was “Non-toxic”.

And the LD50 [24]?
The LD50 was 1000 mg/kg.

And the Activity [25]?
The Activity was “Non-toxic”.

What about the Activity [26] of the same compound?
The Activity was 10%.

And the Activity [27]?
Its Activity is “Toxic”.

And the inhibition of growth at 100 µg/mL [28]?
The inhibition of growth at 100 µg/mL was 58.5%.

And the inhibition of growth at 10 µg/mL [29]?
The inhibition of growth at 10 µg/mL was 33.7%.

What about the inhibition of growth at 1 µg/mL [30] of the same compound?
The inhibition of growth at 1 µg/mL was 6.26%.

From ChEMBL document CHEMBL1157124, “Synthesis and anticancer evaluation of alpha-lipoic acid derivatives” (Bioorg Med Chem Lett, 2010)
